In the test the test system is immunoglobulin light chain protein WIL-FL T46L. Description: Differential scanning fluorimetry (thermal shift) assay. The test is classed as binding. The settings on record: Table A; temperature shift [Tm]compound-[Tm]vehicle; recombinant WIL-FL T46L.
Consider `Cc1cc(N2CC[C@](C)(c3ccccc3)C2)cn2nc(C(=O)N3CC4C3CCCN4c3cccc(C(=O)O)n3)nc12` (stereo partly shown) [Compound 247], for which the DSF entry was “***** (>2.5° C.=*****)”.

In the case of `Cc1cc(N2CC[C@](C)(c3ccccc3)C2)cn2nc(C(=O)N3CCC4(CCN(c5cccc(N)n5)C4)C3)nc12` (stereo partly shown) [Compound 248], the DSF entry was “***** (>2.5° C.=*****)”.

As for `Cc1cc(N2CC[C@](C)(c3ccccc3)C2)cn2nc(C(=O)N3CC4CN(c5cccc(C(=O)O)n5)CC4(C(F)(F)F)C3)nc12` (stereo partly shown) [Compound 249], the DSF result was “***** (>2.5° C.=*****)”.

Regarding `Cc1cc(N2CC[C@](C)(c3ccccc3)C2)cn2nc(C(=O)N3Cc4nc(-c5cccc(C(=O)O)n5)oc4C3)nc12` [Compound 250], the DSF result is given as “***** (>2.5° C.=*****)”.

Regarding `Cc1cc(N2CCC(NC(=O)c3nc4c(C)cc(N5CC[C@](C)(c6ccccc6)C5)cn4n3)CC2)cc(C(=O)O)n1` [Compound 251], the DSF result is “***** (>2.5° C.=*****)”.

Turning to `Cc1cc(N2CC[C@](C)(c3ccccc3)C2)cn2nc(C(=O)N3C[C@@]4(C)CN(c5cccc(C(=O)O)n5)C[C@@]4(C)C3)nc12` [Compound 252], the DSF result is “***** (>2.5° C.=*****)”.

Turning to `Cc1cc(N2CC[C@](C)(c3ccccc3)C2)cn2nc(C(=O)N3CCC4(CCN(c5ncno5)C4)C3)nc12` (stereo partly shown) [Compound 253], the DSF result is listed as “***** (>2.5° C.=*****)”.

With `Cc1cc(N2CC[C@](C)(c3ccccc3)C2)cn2nc(C(=O)NC3CCC(c4cccc(C(=O)O)n4)OC3)nc12` (stereo partly shown) [Compound 254], the DSF entry is “***** (>2.5° C.=*****)”.

As to `Cc1cc(N2CC[C@](C)(c3ccccc3)C2)cn2nc(C(=O)N3CC4CN(c5cccc(C(=O)O)n5)CC4(C(N)=O)C3)nc12` (stereo partly shown) [Compound 255], the DSF result is listed as “***** (>2.5° C.=*****)”.

As for `Cc1cc(N2CC[C@](C)(c3ccccc3)C2)cn2nc(C(=O)N3CCC4(CCN(c5ccnc(C(=O)O)c5)C4)C3)nc12` (stereo partly shown) [Compound 257], the DSF entry is “***** (>2.5° C.=*****)”.

Turning to `Cc1cc(N2CC[C@](C)(c3ccccc3)C2)cn2nc(C(=O)N3CCC4(CCN(c5cccc(C(=O)O)n5)C4)C3)nc12` (stereo partly shown) [Compound 258], the DSF entry was “***** (>2.5° C.=*****)”.

As for `Cc1cc(N2CC[C@](C)(c3ccccc3)C2)cn2nc(C(=O)N3CCOCC34CN(c3cccc(C(=O)O)n3)C4)nc12` [Compound 259], the DSF result is “***** (>2.5° C.=*****)”.

As for `Cc1cc(N2CC[C@](C)(c3ccccc3)C2)cn2nc(C(=O)N3CC4(CCN4Cc4cccc(C(=O)O)n4)C3)nc12` [Compound 260], the DSF result was “***** (>2.5° C.=*****)”.

`Cc1cc(N2CC[C@](C)(c3ccccc3)C2)cn2nc(C(=O)NC3CCN(c4cccc(C(=O)O)n4)CC3(C)C)nc12` (stereo partly shown) [Compound 261]: the DSF result was “***** (>2.5° C.=*****)”.

As for `Cc1cc(N2CC[C@](C)(c3ccccc3)C2)cn2nc(C(=O)Nc3ccnc(C(=O)O)c3)nc12` [Compound 262], the DSF result is listed as “***** (>2.5° C.=*****)”.

As for `COC(=O)c1cc(N2CCC(NC(=O)c3nc4c(C)cc(N5CC[C@](C)(c6ccccc6)C5)cn4n3)CC2)ccn1` [Compound 263], the DSF result is on record as “***** (>2.5° C.=*****)”.

Take `Cc1cc(N2CC[C@](C)(c3ccccc3)C2)cn2nc(C(=O)NC3CCN(c4ccnc(C(=O)O)c4)CC3)nc12` [Compound 264]: the DSF entry is “***** (>2.5° C.=*****)”.

For the compound `Cc1cc(N2CC[C@](C)(c3ccccc3)C2)cn2nc(C(=O)NC3CCN(c4cccnc4C(=O)O)CC3)nc12` [Compound 265], the DSF result is “***** (>2.5° C.=*****)”.

Consider `Cc1cc(N2CC[C@](C)(c3ccccc3)C2)cn2nc(C(=O)N3CCC4(CCN(c5ccnc(C(=O)O)n5)C4)C3)nc12` (stereo partly shown) [Compound 266], for which the DSF result is “***** (>2.5° C.=*****)”.

For `Cc1cc(N2CC[C@](C)(c3ccccc3)C2)cn2nc(C(=O)N3CC[C@@]4(CCN(c5cccc(C(=O)O)n5)C4)C3)nc12` [Compound 267], the DSF entry is “***** (>2.5° C.=*****)”.

Take `Cc1cc(N2CC[C@](C)(c3ccccc3)C2)cn2nc(C(=O)N3CC[C@]4(CCN(c5cccc(C(=O)O)n5)C4)C3)nc12` [Compound 268]: the DSF entry is “***** (>2.5° C.=*****)”.

Turning to `Cc1cc(N2CC[C@](C)(c3ccccc3)C2)cn2nc(C(=O)NC3CCC(O)(c4cccc(C(=O)O)n4)CC3)nc12` (stereo partly shown) [Compound 269], the DSF result is recorded as “***** (>2.5° C.=*****)”.

As for `Cc1cc(N2CC[C@](C)(c3ccccc3)C2)cn2nc(C(=O)N3CC[C@]4(CCN(c5cc(C(=O)O)ccn5)C4)C3)nc12` [Compound 270], the DSF result is given as “***** (>2.5° C.=*****)”.

Take `Cc1cc(N2CC[C@](C)(c3ccccc3)C2)cn2nc(C(=O)NC3CCN(c4ccc(C(=O)O)nc4)C3)nc12` (stereo partly shown) [Compound 271]: the DSF result is on record as “***** (>2.5° C.=*****)”.

Consider `Cc1cc(N2CC3(CC(NC(=O)c4nc5c(C)cc(N6CC[C@](C)(c7ccccc7)C6)cn5n4)C3)C2)cc(C(=O)O)n1` [Compound 272], for which the DSF entry is reported as “***** (>2.5° C.=*****)”.

In the case of `Cc1cc(N2CC[C@](C)(c3ccccc3)C2)cn2nc(C(=O)NC3CCN(c4cccc(C(=O)O)c4)CC3)nc12` [Compound 273], the DSF entry is on record as “***** (>2.5° C.=*****)”.

Regarding `Cc1cc(N2CC[C@](C)(c3ccccc3)C2)cn2nc(C(=O)NC3CN(c4cccc(C(=O)O)n4)CCC3(C)C)nc12` (stereo partly shown) [Compound 274], the DSF entry is recorded as “***** (>2.5° C.=*****)”.

With `Cc1cc(N2CC[C@](C)(c3ccccc3)C2)cn2nc(C(=O)NC3CCN(c4cccc(C(=O)O)n4)CC3)nc12` [Compound 276], the DSF result was “***** (>2.5° C.=*****)”.

For the compound `Cc1cc(N2CC[C@](C)(c3ccccc3)C2)cn2nc(C(=O)NC3CCN(c4ccnc(C(=O)O)c4)C3)nc12` (stereo partly shown) [Compound 277], the DSF entry is listed as “***** (>2.5° C.=*****)”.

In the case of `Cc1cc(N2CC[C@](C)(c3ccccc3)C2)cn2nc(C(=O)N3CC4CN(c5ccnc(C(=O)O)c5)CC4C3)nc12` (stereo partly shown) [Compound 278], the DSF result is on record as “***** (>2.5° C.=*****)”.

Regarding `Cc1cc(N2CC[C@](C)(c3ccccc3)C2)cn2nc(C(=O)N3C[C@H]4C[C@@H]3C[C@H]4Oc3cccc(C(=O)O)n3)nc12` [Compound 280], the DSF result is “***** (>2.5° C.=*****)”.

Turning to `Cc1cc(N2CC[C@](C)(c3ccccc3)C2)cn2nc(C(=O)N3CC45CN(c6cccc(C(=O)O)n6)CC4(C3)C5)nc12` (stereo partly shown) [Compound 281], the DSF result is reported as “***** (>2.5° C.=*****)”.

`Cc1cc(N2CC[C@](C)(c3ccccc3)C2)cn2nc(C(=O)NC3(C)CCN(c4ccnc(C(=O)O)c4)CC3)nc12` [Compound 282]: the DSF entry was “***** (>2.5° C.=*****)”.

`Cc1cc(N2CC[C@](C)(c3ccccc3)C2)cn2nc(C(=O)NC3CCN(c4ccnc(S(C)(=N)=O)c4)CC3)nc12` (stereo partly shown) [Compound 283]: the DSF result is recorded as “***** (>2.5° C.=*****)”.

For `Cc1cc(N2CC[C@](C)(c3ccccc3)C2)cn2nc(C(=O)NC3CCN(c4ccnc(-c5nnn[nH]5)c4)CC3)nc12` [Compound 284], the DSF entry was “***** (>2.5° C.=*****)”.

On to `Cc1cc(N2CC[C@](C)(c3ccccc3)C2)cn2nc(C(=O)NC3CCN(c4cccc(-c5nnn[nH]5)n4)CC3)nc12` [Compound 285], for which the DSF result is reported as “***** (>2.5° C.=*****)”.

Consider `Cc1cc(N2CC[C@](C)(c3ccccc3)C2)cn2nc(C(=O)N3CCOC4(C3)CN(c3cccc(C(=O)O)n3)C4)nc12` [Compound 286], for which the DSF entry is on record as “***** (>2.5° C.=*****)”.

Regarding `Cc1cc(N2CC[C@](C)(c3ccccc3)C2)cn2nc(C(=O)N3CC4CN(c5cccc(C(=O)O)n5)CC(C3)O4)nc12` [Compound 287], the DSF result was “***** (>2.5° C.=*****)”.

As to `Cc1cc(N2CC[C@](C)(c3ccccc3)C2)cn2nc(C(=O)N3CCCN(c4cccc(C(=O)O)n4)CCC3)nc12` [Compound 288], the DSF entry was “***** (>2.5° C.=*****)”.

Consider `Cc1cc(N2CC[C@](C)(c3ccccc3)C2)cn2nc(C(=O)N3CCC4(CCN(C5CCCC(C(=O)O)C5)C4)C3)nc12` (stereo partly shown) [Compound 289], for which the DSF result is reported as “***** (>2.5° C.=*****)”.

With `Cc1noc(N2CCC(NC(=O)c3nc4c(C)cc(N5CC[C@](C)(c6ccccc6)C5)cn4n3)CC2)n1` [Compound 290], the DSF result is recorded as “***** (>2.5° C.=*****)”.

As for `Cc1cc(N2CC3(CCC3c3ccccc3)C2)cn2nc(C(=O)N3C[C@@H]4CN(c5cccc(C(=O)O)n5)C[C@@H]4C3)nc12` (stereo partly shown) [Compound 291], the DSF entry is given as “***** (>2.5° C.=*****)”.

For `CNC(=O)c1cc2c(N)cc(N3CC[C@](C)(c4ccccc4)C3)cn2n1` [Compound 292], the DSF entry was “*** (>1-1.5° C.=***)”.

As to `C[C@]1(c2ccccc2)CCN(c2cc(O)c3nc(C(=O)N4CC[C@@]5(CCN(c6cccc(C(=O)O)n6)C5)C4)nn3c2)C1` [Compound 293], the DSF result is listed as “**** (>1.5-2.5° C.=****)”.

On to `COc1cc(N2CC[C@](C)(c3ccccc3)C2)cn2nc(C(=O)N3CC[C@@]4(CCN(c5cccc(C(=O)O)n5)C4)C3)nc12` [Compound 294], for which the DSF result is given as “***** (>2.5° C.=*****)”.

Turning to `Cc1cc(N2CCC(C)(O)C2)cn2nc(C(=O)N3CC4CN(c5cccc(C(=O)O)n5)CC4C3)nc12` (stereo not shown) [Compound 295], the DSF entry is recorded as “* (0-0.5° C.=*)”.

As to `Cc1cc(N2CCC(C)(C3CC4(CCC4)C3)C2)cn2nc(C(=O)N3C[C@@H]4CN(c5cccc(C(=O)O)n5)C[C@@H]4C3)nc12` (stereo partly shown) [Compound 296], the DSF entry is “** (>0.5-1 °C =**)”.

Turning to `Cc1cc(N2CC3CC2(c2ccccc2)C3)cn2nc(C(=O)N3C[C@@H]4CN(c5cccc(C(=O)O)n5)C[C@@H]4C3)nc12` [Compound 297], the DSF entry is given as “* (0-0.5° C.=*)”.

In the case of `Cc1cc(N2CC(C)(C)C(C)(c3ccccc3)C2)cn2nc(C(=O)N3C[C@@H]4CN(c5cccc(C(=O)O)n5)C[C@@H]4C3)nc12` (stereo partly shown) [Compound 298], the DSF entry is “** (>0.5-1 °C =**)”.

In the case of `Cc1nsc(C2(C)CCN(c3cc(C)c4nc(C(=O)N5C[C@@H]6CN(c7cccc(C(=O)O)n7)C[C@@H]6C5)nn4c3)C2)n1` (stereo partly shown) [Compound 299], the DSF result is reported as “*** (>1-1.5° C.=***)”.

`Cc1noc(C2(C)CCN(c3cc(C)c4nc(C(=O)N5C[C@@H]6CN(c7cccc(C(=O)O)n7)C[C@@H]6C5)nn4c3)C2)n1` (stereo partly shown) [Compound 300]: the DSF result is “*** (>1-1.5° C.=***)”.

As for `Cc1nnc(C2(C)CCN(c3cc(C)c4nc(C(=O)N5C[C@@H]6CN(c7cccc(C(=O)O)n7)C[C@@H]6C5)nn4c3)C2)s1` (stereo partly shown) [Compound 301], the DSF entry was “* (0-0.5° C.=*)”.

Source of the values: US20260285857A1, “BICYCLIC AND HETEROCYCLIC AMIDE COMPOUNDS” (priority 2024, published 2026).
